Where a name gives a salt, the structure may show the parent alone.
Tested on: rabbits (New Zealand White)
Test: Ocular hypotensive effect in rabbits
Type: in vivo, rabbit
Details: Oryctolagus cuniculus, topical, 0.04 mL dropped to one eye, vehicle to contralateral eye, test compound solution concentration 10 (W/V), read-out: Maximum ocular hypotensive rate
Protocol: The compound of the present invention was administered to rabbits (New Zealand White, sex: male, 3 to 7 per group) and evaluated for its ocular hypotensive effect.
Each test compound was dissolved in a vehicle (1.04 g of sodium dihydrogen phosphate dihydrate and 0.5 g of sodium chloride dissolved in purified water and then adjusted to pH 7.0 with sodium hydroxide to make the total amount to 100 mL) to prepare a test compound solution with a concentration of 10 (W/V).
The intraocular pressures of the rabbits were measured using Tiolat TonoVet handheld tonometer immediately before administration of test compound. The test compound solution and the vehicle were dropped at a volume of 0.04 mL to one eye and the contralateral eye, respectively, and the intraocular pressures were measured over time in the same way as above. The rate of the intraocular pressure of the eye receiving the test compound solution to that of the eye receiving the vehicle was calculated as an ocular hypotensive rate.

| SMILES | inhibition in vivo at 10 % [%] |
| --- | --- |
| O=S(=O)(c1ccc2cnccc2c1)N1CCCCNCC1CF (stereo in doubt) [Example 27, (R)-6-(2-fluoromethyl-1,4-diazocan-1-ylsulfonyl)isoquinoline dihydrochloride] | ≥ 15 |
| O=S(=O)(c1ccc2cnccc2c1)N1CCNCC1 [Example 1, 6-(piperazin-1-ylsulfonyl)isoquinoline dihydrochloride] | ≥ 15 |
| N[C@@H]1CCN(S(=O)(=O)c2ccc3cnccc3c2)C1 [Example 2, (R)-6-(3-aminopyrrolidin-1-ylsulfonyl)isoquinoline dihydrochloride] | ≥ 15 |
| O=S(=O)(c1ccc2cnccc2c1)N1CCCNCC1 [Example 3, 6-(1,4-diazepan-1-ylsulfonyl)isoquinoline dihydrochloride] | ≥ 15 |
| NC1CCN(S(=O)(=O)c2ccc3cnccc3c2)CC1 [Example 4, 6-(4-aminopiperidin-1-ylsulfonyl)isoquinoline dihydrochloride] | 5 to 15 |
| O=S(=O)(c1ccc2cnccc2c1Br)N1CCCNCC1 [Example 5, 5-bromo-6-(1,4-diazepan-1-ylsulfonyl)isoquinoline dihydrochloride] | ≥ 15 |
| O=S(=O)(c1cc(F)c2cnccc2c1)N1CCCNCC1 [Example 6, 6-(1,4-diazepan-1-ylsulfonyl)-8-fluoroisoquinoline dihydrochloride] | 5 to 15 |
| O=S(=O)(c1ccc2cnccc2c1)N1C[C@@H]2C[C@H]1CN2 [Example 7, 6-{(1S,4S)-2,5-diazabicyclo[2.2.1]heptan-2-ylsulfonyl}isoquinoline dihydrochloride] | ≥ 15 |
| C[C@@H]1CNC/C=C\CN1S(=O)(=O)c1ccc2cnccc2c1 [Example 8, (R,Z)-6-(2-methyl-2,3,4,5-tetrahydro-1,4-diazocin-1(8H)-ylsulfonyl)isoquinoline dihydrochloride] | ≥ 15 |
| O=S(=O)(c1ccc2cnccc2c1)N1CCOCC1 [Example 9, 6-(morpholin-1-ylsulfonyl)isoquinoline hydrochloride] | 5 to 15 |
| CN[C@H]1CCN(S(=O)(=O)c2ccc3cnccc3c2)C1 [Example 10, (S)-6-{3-(N-methylamino)pyrrolidin-1-ylsulfonyl}isoquinoline dihydrochloride] | 5 to 15 |
| C[C@H]1CNCCCN1S(=O)(=O)c1ccc2cnccc2c1 [Example 12, (S)-6-(2-methyl-1,4-diazepan-1-ylsulfonyl)isoquinoline dihydrochloride] | ≥ 15 |
| C[C@H]1CNCCN1S(=O)(=O)c1ccc2cnccc2c1 [Example 13, (S)-6-(2-methylpiperazin-1-ylsulfonyl)isoquinoline dihydrochloride] | ≥ 15 |
| CC1CN(S(=O)(=O)c2ccc3cnccc3c2)CCCN1 (stereo not shown) [Example 16, 6-(3-methyl-1,4-diazepan-1-ylsulfonyl)isoquinoline dihydrochloride] | ≥ 15 |
| CC1CCNCCN1S(=O)(=O)c1ccc2cnccc2c1 (stereo not shown) [Example 17, 6-(7-methyl-1,4-diazepan-1-ylsulfonyl)isoquinoline dihydrochloride] | ≥ 15 |
| CC[C@@H]1CNCCCN1S(=O)(=O)c1ccc2cnccc2c1 [Example 19, (R)-6-(2-ethyl-1,4-diazepan-1-ylsulfonyl)isoquinoline dihydrochloride] | ≥ 15 |
| CC[C@@H]1CNCCCCN1S(=O)(=O)c1ccc2cnccc2c1 [Example 20, (R)-6-(2-ethyl-1,4-diazocan-1-ylsulfonyl)isoquinoline dihydrochloride] | ≥ 15 |
| O=S(=O)(c1ccc2cnccc2c1)N1CCCCNCC1 [Example 21, 6-(1,4-diazocan-1-ylsulfonyl)isoquinoline dihydrochloride] | ≥ 15 |
| CC1(C)CNCCCN1S(=O)(=O)c1ccc2cnccc2c1 [Example 22, 6-(2,2-dimethyl-1,4-diazepan-1-ylsulfonyl)isoquinoline dihydrochloride] | ≥ 15 |

From patent US8951997B2, “Substituted isoquinoline derivative” (D. Western Therapeutics Institute, Inc., priority 2009, dated 2015)
